SMILES strings stand for the structures.

The experiment has as its target T1, human ALK5 (kinase domain, ALK5 T204D) (Homo sapiens, UniProt P36897, T204D).
T1 construct: The kinase domain of human ALK5 (amino acids 200-503); made in house; host or cells: insect cells (baculovirus)
T1 sequence (P36897 200-503 T204D): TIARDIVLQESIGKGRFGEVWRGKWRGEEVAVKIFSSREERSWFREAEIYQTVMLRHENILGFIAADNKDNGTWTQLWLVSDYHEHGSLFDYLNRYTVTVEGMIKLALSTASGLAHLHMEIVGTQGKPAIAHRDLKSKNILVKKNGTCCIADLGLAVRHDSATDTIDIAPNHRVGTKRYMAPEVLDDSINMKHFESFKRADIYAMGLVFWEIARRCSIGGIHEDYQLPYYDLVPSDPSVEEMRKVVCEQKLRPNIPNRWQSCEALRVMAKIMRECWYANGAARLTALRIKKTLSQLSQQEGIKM
The experiment can be described thus: ALK5 kinase assay ([33P] phosphate incorporation into casein). It is filed as biochemical. To be noted: casein substrate, 1 μM unlabelled ATP. Here is the method:
The kinase activity of ALK5 is assessed by measuring radiolabelled phosphate [33P] incorporation in to the generic substrate, casein. The kinase domain of human ALK5 (amino acids 200-503) is fused to an N-terminal histidine tag. The kinase activity of ALK5 is rendered constitutive via point mutation at amino acid 204 (threonine to aspartate modification, ALK5 T204D) and the kinase construct is engineered to be expressed from a baculovirus expression construct in insect cells. The purified, recombinantly-expressed histidine-tagged ALK5 T204D protein is dissolved at 5.4 mg/ml in 50 mM Tris-HCl pH 8.0, 150 mM NaCl, 5 mM DTT. ALK5 T204D is dissolved to 2.5 μg/ml in assay buffer (Assay buffer: 20 mM Tris-HCl pH 7.4, 10 mM MgCl2, 2 mM MnCl2) on the day of use.
Test compounds and reference compounds are dissolved in assay buffer without DTT containing 5% (v/v) DMSO. Stock solutions of test and reference compounds are diluted in assay buffer with DTT (1.25 mM) containing 4.5% (v/v) DMSO. 10 μl of test or reference compound are added to the appropriate wells of 96 well U-bottomed plate. Total enzyme activity is determined by measuring ALK5 T204D activity in the absence of ALK5 kinase inhibitor reference compounds. Non-specific binding (NSB) is determined by measuring the activity of ALK5 T204D in the presence of ALK5 kinase inhibitor reference compounds. 10 μl of dephosphorylated casein stock solution (dephosphorylated casein is dissolved in ddH2O at 20 mg/ml) is added per well (200 μg/well final assay concentration). 20 μl of ALK5 T204D (2.5 μg/ml solution) is added per well (50 ng/well final assay concentration). The plates are left to incubate at room temperature for 10 minutes.
10 μl of ATP mix is added to the well to initiate the reaction (0.66 nM [^33P]ATP/1 μM unlabelled ATP/well final assay concentration). The ATP mix is prepared as follows, unlabelled ATP (3 mM) is dissolved in ddH2O and pH adjusted to 7.4. The stock concentration of [^33P]ATP is 10 μCi/μl. The appropriate volume of [^33P]ATP is added to unlabelled ATP solution such that the final assay concentration per well is 0.1 μCi. Following addition of the ATP mix, the plates are incubated at room temperature for 50 minutes. The kinase reaction is terminated by the addition of 50 μL Stop Buffer (20 mM Tris-HCl pH 7.4, 10 mM EDTA).
75 μl/well from the reaction plate is transferred to a Multiscreen-IP plate (MultiScreen-IP plates are prepared by added 50 μL of 70% (v/v) ethanol per well and incubated for 5 minutes at room temperature. The ethanol is removed by aspiration via a MultiScreen HTS Vaccum Manifold unit (Millipore, Cat no: MSVMHT500). The plates are washed twice by adding 200 μl/well ddH2O). The MultiScreen-IP plate is incubated at room temperature for 30 minutes to allowing binding of casein to the plate. The MultiScreen-IP plates are washed three times by adding 200 μl/well 100 mM phosphoric acid solution and the gasket is carefully removed from the back of the MultiScreen-IP plate and the plate dried in the oven for 30 minutes. The MultiScreen-IP plate is backsealed, 50 μL of Microscint™20 is added, then the plates are topsealed and radiolabelled casein detected and quantified on a TopCount™ plate-reader using the ^33P scintillation protocol.
Regarding `Cc1cccc(-c2nc(-c3cncc(-c4ccc5c(c4)CNCC5)c3)c3cc[nH]c3n2)n1` [Example 118, 7-{5-[2-(6-Methyl-pyridin-2-yl)-7H-pyrrolo[2,3-d]pyrimidin-4-yl]-pyridin-3-yl}-1,2,3,4-tetrahydro-isoquinoline], inhibition was half-maximal at 3.9 nM (IC50). This lies in the single-digit nanomolar range. Then `Cc1cccc(-c2nc(-c3cncc(-c4ccc(CN(C)C)cn4)c3)c3cc[nH]c3n2)n1` [Example 124, Dimethyl-{5′-[2-(6-methyl-pyridin-2-yl)-7H-pyrrolo[2,3-d]pyrimidin-4-yl]-[2,3′]bipyridinyl-5-ylmethyl}-amine], with 11 nM; and `CSc1cncc(-c2nc(-c3cccc(C)n3)nc3[nH]ccc23)c1` [Example 94, 2-(6-Methyl-pyridin-2-yl)-4-(5-methylsulfanyl-pyridin-3-yl)-7H-pyrrolo[2,3-d]pyrimidine], with 191 nM; and `Cc1cccc(-c2cc(-c3cncc(-c4ccc(CN)cc4)c3)c3cc[nH]c3n2)n1` [Example 84, 4-{5-[6-(6-Methyl-pyridin-2-yl)-1H-pyrrolo[2,3-b]pyridin-4-yl]-pyridin-3-yl}-benzylamine], with 36 nM. As for `Cc1cccc(-c2cc(-c3cncc(-c4ccc(C(C)(C)N5CCOCC5)cc4)c3)c3cc[nH]c3n2)n1` [Example 161, 4-{5-[4-(1-Methyl-1-morpholin-4-yl-ethyl)-phenyl]-pyridin-3-yl}-6-(6-methyl-pyridin-2-yl)-1H-pyrrolo[2,3-b]pyridine], the IC50 came out at 19 nM. Against the preceding compound, the IC50 is about 1.9-fold lower.

Consider `Cc1cccc(-c2nc(-c3cnccc3C)c3cc[nH]c3n2)n1` [Example 55, 4-(4-Methyl-pyridin-3-yl)-2-(6-methyl-pyridin-2-yl)-7H-pyrrolo[2,3-d]pyrimidine], for which half-maximal inhibition (IC50) required 813 nM.

Regarding `Cc1cccc(-c2nc(-c3cncc(-c4cccc(CN5CCN(C)CC5)c4)c3)c3cc[nH]c3n2)n1` [Example 10, 4-{5-[3-(4-Methyl-piperazin-1-ylmethyl)-phenyl]-pyridin-3-yl}-2-(6-methyl-pyridin-2-yl)-7H-pyrrolo[2,3-d]pyrimidine], it took 50 nM to reach half-maximal inhibition (IC50). Take `Cc1cccc(-c2cc(-c3cncc(-c4ccc(CCC(=O)O)cc4)c3)c3cc[nH]c3n2)n1` [Example 159, 3-(4-{5-[6-(6-Methyl-pyridin-2-yl)-1H-pyrrolo[2,3-b]pyridin-4-yl]-pyridin-3-yl}-phenyl)-propionic acid]: the midpoint of inhibition, the IC50, lay at 6.5 nM. The same measure for `Cc1cccc(-c2cc(-c3cncc(-c4cccc(CO)c4)c3)c3cc[nH]c3n2)n1` [Example 93, (3-{5-[6-(6-Methyl-pyridin-2-yl)-1H-pyrrolo[2,3-b]pyridin-4-yl]-pyridin-3-yl}-phenyl)-methanol]: 24 nM; for `Cc1cccc(-c2cc(-c3cncc(-c4ccc(CNCCO)cc4)c3)c3cc[nH]c3n2)n1` [Example 135, 2-(4-{5-[6-(6-Methyl-pyridin-2-yl)-1H-pyrrolo[2,3-b]pyridin-4-yl]-pyridin-3-yl}-benzylamino)-ethanol]: 3.3 nM; for `Cc1cccc(-c2nc(-c3cncc(-c4cccc(CNCC(=O)O)c4)c3)c3cc[nH]c3n2)n1` [Example 148, (3-{5-[2-(6-Methyl-pyridin-2-yl)-7H-pyrrolo[2,3-d]pyrimidin-4-yl]-pyridin-3-yl}-benzylamino)-acetic acid]: 17 nM. Then `Cc1cccc(-c2nc(-c3cncc(-c4ccc(C(=O)N5CCN(C)CC5)cc4)c3)c3cc[nH]c3n2)n1` [Example 9, (4-methyl-piperazin-1-yl)-(4-{5-[2-(6-methyl-pyridin-2-yl)-7H-pyrrolo[2,3-d]pyrimidin-4-yl]-pyridin-3-yl}-phenyl)-methanone], with 13 nM; and `COC(=O)CNCc1cccc(-c2cncc(-c3nc(-c4cccc(C)n4)nc4[nH]ccc34)c2)c1` [Example 146, (3-{5-[2-(6-Methyl-pyridin-2-yl)-7H-pyrrolo[2,3-d]pyrimidin-4-yl]-pyridin-3-yl}-benzylamino)-acetic acid methyl ester], with 27 nM. `COc1cccc(-c2cncc(-c3nc(-c4cccc(C)n4)nc4[nH]ccc34)c2)c1` [Example 6, 4-[5-(3-Methoxy-phenyl)-pyridin-3-yl]-2-(6-methyl-pyridin-2-yl)-7H-pyrrolo[2,3-d]pyrimidine] gave an IC50 of 32 nM.

`Cc1cccc(-c2nc(-c3cncc(N4CCOCC4)c3)c3cc[nH]c3n2)n1` [Example 51, 2-(6-Methyl-pyridin-2-yl)-4-(5-morpholin-4-yl-pyridin-3-yl)-7H-pyrrolo[2,3-d]pyrimidine] returned an IC50 of 660 nM. This IC50 is about 21-fold higher than that of the compound before. Then `Cc1cccc(-c2cc(-c3cncc(-c4cccc(C(C)(C)N)c4)c3)c3cc[nH]c3n2)n1` [Example 113, 1-Methyl-1-(3-{5-[6-(6-methyl-pyridin-2-yl)-1H-pyrrolo[2,3-b]pyridin-4-yl]-pyridin-3-yl}-phenyl)-ethylamine], with 27 nM; and `COc1ccc(-c2cncc(-c3nc(-c4cccc(C)n4)nc4[nH]ccc34)c2)cc1` [Example 5, 4-[5-(4-Methoxy-phenyl)-pyridin-3-yl]-2-(6-methyl-pyridin-2-yl)-7H-pyrrolo[2,3-d]pyrimidine], with 115 nM. The same measure for `Cc1cccc(-c2nc(-c3cncc(-c4ccc(N5CCCCC5)cc4)c3)c3cc[nH]c3n2)n1` [Example 17, 2-(6-Methyl-pyridin-2-yl)-4-[5-(4-piperidin-1-yl-phenyl)-pyridin-3-yl]-7H-pyrrolo[2,3-d]pyrimidine]: 929 nM; for `Cc1cccc(-c2cc(-c3cncc(-c4ccc(CN5CC[C@@H](N(C)C)C5)cc4)c3)c3cc[nH]c3n2)n1` [Example 108, Dimethyl-[(R)-1-(4-{5-[6-(6-methyl-pyridin-2-yl)-1H-pyrrolo[2,3-b]pyridin-4-yl]-pyridin-3-yl}-benzyl)-pyrrolidin-3-yl]-amine]: 4.6 nM. The same measure for `Cc1cccc(-c2nc(-c3cncc(C(=O)NCCN(C)C)c3)c3cc[nH]c3n2)n1` [Example 12, N-(2-Dimethylamino-ethyl)-5-[2-(6-methyl-pyridin-2-yl)-7H-pyrrolo[2,3-d]pyrimidin-4-yl]-nicotinamide]: 345 nM. The compound `CNCc1cccc(-c2cncc(-c3nc(-c4cccc(C)n4)nc4[nH]ccc34)c2)c1` [Example 36, Methyl-(3-{5-[2-(6-methyl-pyridin-2-yl)-7H-pyrrolo[2,3-d]pyrimidin-4-yl]-pyridin-3-yl}-benzyl)-amine] yielded an IC50 of 8 nM. Regarding `Cc1cccc(-c2cc(-c3cncc(-c4ccc(CN(C)C)cn4)c3)c3cc[nH]c3n2)n1` [Example 125, Dimethyl-{5′-[6-(6-methyl-pyridin-2-yl)-1H-pyrrolo[2,3-b]pyridin-4-yl]-[2,3′]-5-ylmethyl}-amine], inhibition was half-maximal at 8 nM (IC50). That is a single-digit nanomolar value. The same measure for `Cc1cccc(-c2cc(-c3cncc(-c4cccc(CN(C)CC(=O)O)c4)c3)c3cc[nH]c3n2)n1` [Example 143, [Methyl-(3-{5-[6-(6-methyl-pyridin-2-yl)-1H-pyrrolo[2,3-b]pyridin-4-yl]-pyridin-3-yl}-benzyl)-amino]-acetic acid]: 30 nM; for `Cc1cccc(-c2cc(-c3cncc(C#CCN4CCN(C)CC4)c3)c3cc[nH]c3n2)n1` [Example 129, 4-{5-[3-(4-Methyl-piperazin-1-yl)-prop-1-ynyl]-pyridin-3-yl}-6-(6-methyl-pyridin-2-yl)-1H-pyrrolo[2,3-b]pyridine]: 16 nM.

The term IC50 denotes the concentration that gives 50% inhibition. High values mean a need for much substance, low ones inhibition by little substance.
